Laboratory results published in patent US7772233B2, “Arylamino N-heteroaryl compounds as MEK inhibitors” (Merck Serono, S.A., priority 2006, dated 2010).
pIC50: −log10 of the molar value.

Columns and labels:
Human Mek1 Kinase = Human Mek1 Kinase (Homo sapiens, UniProt Q02750, S218E/S222E); test: MEK-1 Enzyme Assay (LANCE-HTRF); type: biochemical; settings: constitutively active MEK-1EE, ERK-2K52A substrate, 9 μM ATP, 1.5 hrs room temperature
Protocol: Assay 1: MEK-1 Enzyme Assay (LANCE-HTRF)
Inhibition of Human Mek1 Kinase Activity was Monitored with a Homogenous, fluorescence-based assay. The assay uses time resolved fluorescence resonance energy transfer to probe for phosphorylation of ERK1 by MEK1. The detailed procedure is described in the following:
Constititutively active MEK-1EE (150 ng/well) and ERK-2K52A (110 ng/well) were incubated in black, 384 well Optiplates (Perkin Elmer) for 1.5 hrs at room temperature, in the presence of increasing concentrations of inhibitors. The total reaction volume was 50 μl. The inhibitors were serial diluted in kinase buffer (9 μM ATP, 50 mM Tris-HCl pH 8.0, 10 mM MgCl2, 1 mM DTT and 100 μM Na3VO4), to a final concentration of 1% DMSO. At the end of the incubation, the enzyme reaction was quenched by adding 50 μl of assay buffer containing 50 mM Tris-HCl, 50 mM EDTA, 0.1% BSA and a mixture of 1.25 ug/ml europium labeled anti-phosphotyrosine mAb (Perkin Elmer) and 5 μg/ml of allophycocyanin labeled anti-GST antibody (CIS-US). Plates were agitated on a plate shaker for 30 minutes and the phosphorylation of the ERK-2K52A substrate was measured by homogeneous time resolved fluorescence (HTRF) at 340 nm excitation and 665 nm (Europium)/615 nm (APC) emission filters on the VICTOR V fluorescence plate reader. Phosphorylation is expressed as a ratio of 665 nM signal×10,000/615 nM signal. To assess the inhibitory potential of the compounds, IC50-values were determined. Results are shown in Table 1, column 2, where “+++” indicates IC50 values below 1 μM, “++” indicates IC50 values below 10 μM and above 1 μM, and “+” indicates IC50 values above 10 μM.

Murine colon C26 cells = test: Tumor Cell Proliferation Assay (ATP Lite), C26; type: cell-based; settings: Mus musculus, 96 h, 4 days incubation, ATPlite
Protocol: (§1) Assay 2: Tumor Cell Proliferation Assays (ATP Lite)
(§2) Murine colon C26 (1500 cells/well), human melanoma A375 (2000 cells/well), or human pancreatic MiaPaCa-2 cells (2000 cells/well) were plated in white, 96 well plates (Corning) in growth media (DMEM with 10% fetal bovine serum, 2 mM glutamine for C26 and MiaPaCa-2, and RPMI with 10% fetal bovine serum, 2 mM glutamine for A375) and cultured overnight at 37° C. in a humidified, 5% CO2 incubator. Inhibitors were serially diluted in 100% DMSO and subsequently added to the cells, in growth media, to reach a final concentration of 0.25% DMSO. The cells were incubated for 4 days in the presence of the test compounds and the proliferation was quantitated using the ATPlite cell proliferation kit (Packard). Results of cell proliferation assay are shown in Table 1. columns 3-5, where “+++” indicates IC50 values below 1 μM, “++” indicates IC50 values below 10 μM and above 1 μM, and “+” indicates IC50 values above 10 μM.

[1] = tested on: human melanoma A375 cells; test: Tumor Cell Proliferation Assay (ATP Lite), A375; type: cell-based; settings: A-375, 96 h, 4 days incubation, ATPlite
Protocol: as §1, §2

[2] = tested on: human pancreatic MiaPaCa-2 cells; test: Tumor Cell Proliferation Assay (ATP Lite), MiaPaCa-2; type: cell-based; settings: MIA PaCa-2, 96 h, 4 days incubation, ATPlite, read-out: MiaPaCa2
Protocol: as §1, §2

Chain of Human Mek1 Kinase (Q02750 whole entry S218E/S222E): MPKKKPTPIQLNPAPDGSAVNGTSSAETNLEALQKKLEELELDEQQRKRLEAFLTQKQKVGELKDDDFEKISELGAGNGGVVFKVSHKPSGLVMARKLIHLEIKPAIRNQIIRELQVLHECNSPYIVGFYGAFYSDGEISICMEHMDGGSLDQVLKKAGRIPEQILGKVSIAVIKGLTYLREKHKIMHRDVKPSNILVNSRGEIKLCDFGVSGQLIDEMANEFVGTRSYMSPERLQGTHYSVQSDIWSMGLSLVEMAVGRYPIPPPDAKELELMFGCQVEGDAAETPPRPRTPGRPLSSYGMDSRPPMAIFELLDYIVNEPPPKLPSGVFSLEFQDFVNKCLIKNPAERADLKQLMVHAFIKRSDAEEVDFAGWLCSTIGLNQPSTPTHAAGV

pIC50 (Human Mek1 Kinase) | pIC50 (Murine colon C26 cells) | pIC50 [1] | pIC50 [2] | SMILES
> 6.00 | < 5.00 | 5.00 to 6.00 | 5.00 to 6.00 | NC(=O)c1cc(Cl)nnc1Nc1ccc(I)cc1F [Example 9, 6-Chloro-3-(2-fluoro-4-iodo-phenylamino)-pyridazine-4-carboxylic acid amide]
5.00 to 6.00 | < 5.00 | 5.00 to 6.00 | < 5.00 | O=C(NOC[C@H](O)CO)c1ccc(F)nc1Nc1ccc(I)cc1F [Example 13, N—[(R)-2,3-Dihydroxy-propoxy]-6-fluoro-2-[(2-fluoro-4-iodo-phenylamino)]-nicotinamide]
5.00 to 6.00 |  |  |  | CC1(C)OC[C@H](CONC(=O)c2ccc(F)nc2Nc2ccc(I)cc2F)O1 [Example 12, N-{[(4R)-2,2-dimethyl-1,3-dioxolan-4-yl]methoxy}-6-fluoro-2-[(2-fluoro-4-iodophenyl)amino]nicotinamide]
< 5.00 | < 5.00 | < 5.00 | < 5.00 | COc1cc(C(=O)O)c(Nc2ccc(I)cc2F)nn1 [Example 6, 3-(2-Fluoro-4-iodo-phenylamino)-6-methoxy-pyridazine-4-carboxylic acid]
< 5.00 | < 5.00 | < 5.00 | < 5.00 | CC1(C)OC[C@H](CONC(=O)c2cc(Cl)nnc2Nc2ccc(I)cc2F)O1 [Example 7, 6-Chloro-3-(2-fluoro-4-iodo-phenylamino)-pyridazine-4-carboxylic acid (2,2-dimethyl-[1,3]dioxolan-4-ylmethoxy)-amide]
> 6.00 | < 5.00 | < 5.00 | < 5.00 | O=C(O)c1ccc(F)nc1Nc1ccc(I)cc1F [Example 11, 6-fluoro-2-[(2-fluoro-4-iodophenyl)amino]nicotinic acid]
> 6.00 | < 5.00 | < 5.00 | < 5.00 | O=C(O)c1cc(Cl)nnc1Nc1ccc(I)cc1F [Example 4, 6-Chloro-3-(2-fluoro-4-iodo-phenylamino)-pyridazine-4-carboxylic acid]
< 5.00 |  |  |  | N#Cc1ncc(F)cc1Nc1ccc(I)cc1F [Example 1, 5-Fluoro-3-(2-fluoro-4-iodo-phenylamino)-pyridine-2-carbonitrile]
5.00 to 6.00 |  |  |  | O=C(O)c1ncc(F)cc1Nc1ccc(I)cc1F [Example 2, 5-Fluoro-3-(2-fluoro-4-iodo-phenylamino)-pyridine-2-carboxylic acid]
5.00 to 6.00 | < 5.00 | < 5.00 | < 5.00 | O=C(O)c1cc(N2CCOCC2)nnc1Nc1ccc(I)cc1F [Example 5, 3-(2-Fluoro-4-iodo-phenylamino)-6-morpholin-4-yl-pyridazine-4-carboxylic acid]
> 6.00 | < 5.00 | 5.00 to 6.00 | < 5.00 | NC(=O)c1ncc(F)cc1Nc1ccc(I)cc1F [Example 3, 5-Fluoro-3-(2-fluoro-4-iodo-phenylamino)-pyridine-2-carboxylic acid amide]
5.00 to 6.00 |  |  |  | O=C(NCCN1CCOCC1)c1cc(Cl)nnc1Nc1ccc(I)cc1F [Example 10, 6-Chloro-3-(2-fluoro-4-iodo-phenylamino)-pyridazine-4-carboxylic acid (2-morpholin-4-yl-ethyl)-amide]
< 5.00 |  |  |  | O=C(NOC[C@H](O)CO)c1cc(Cl)nnc1Nc1ccc(I)cc1F [Example 8, 6-Chloro-3-(2-fluoro-4-iodo-phenylamino)-pyridazine-4-carboxylic acid (2,3-dihydroxy-propoxy)-amide]
